These results are taken from patent US8501770B2 (ArQule, Inc., priority 2009, dated 2013).

SMILES strings stand for the structures.

Broadly, the IC50 is the midpoint of a concentration-inhibition curve.

For the first assay, the target named is Full-length inactive AKT1 (Homo sapiens, UniProt P31749). The assay can be described thus: Inactive Akt Alpha Screen Assay. Type of assay: biochemical. To be noted: AlphaScreen assay (values not marked with *); read-out: Akt1 IC50, (AlphaScreen) (μM) (or if marked with “*” HTRF assay). In a few lines: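 AlphaScreen read-out (excitation 640 nm, emission 570 nm) after 90 min incubation at room temperature in the dark. Signal comes from crosstide phosphorylation by AKT1, which was activated by added PDK1, MAPKAPK2, ATP and lipid vesicles, captured via phospho-AKT substrate antibody and streptavidin beads.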
Chain of Full-length inactive AKT1 (P31749 whole entry): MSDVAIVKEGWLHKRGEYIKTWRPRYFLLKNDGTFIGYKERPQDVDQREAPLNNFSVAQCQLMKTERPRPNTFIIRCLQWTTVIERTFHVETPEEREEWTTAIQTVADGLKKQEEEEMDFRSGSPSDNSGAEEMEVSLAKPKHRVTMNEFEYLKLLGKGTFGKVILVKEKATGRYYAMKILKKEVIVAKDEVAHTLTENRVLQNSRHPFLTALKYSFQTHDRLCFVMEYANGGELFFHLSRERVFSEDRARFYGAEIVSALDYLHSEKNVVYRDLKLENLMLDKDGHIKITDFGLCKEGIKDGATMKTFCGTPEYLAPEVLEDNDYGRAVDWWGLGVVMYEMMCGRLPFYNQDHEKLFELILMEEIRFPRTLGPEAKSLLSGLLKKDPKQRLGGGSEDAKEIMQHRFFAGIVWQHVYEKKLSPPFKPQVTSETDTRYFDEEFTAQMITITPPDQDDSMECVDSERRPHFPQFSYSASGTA
Background: Alpha assays give light when donor and acceptor beads are brought close together.
In the case of `Cc1ccc(-c2ccc3nc(-c4cccnc4N)n(-c4ccc(C5(N)CCC5)cc4)c3n2)cc1O` [Example 443, 5-{3-[4-(1-aminocyclobutyl)phenyl]-2-(2-aminopyridin-3-yl)-3H-imidazo[4,5-b]pyridin-5-yl}-2-methylphenol], the IC50 came out at 0.012 µM.
For `CN(C)C1CCN(c2cccc(-c3ccc4nc(-c5cccnc5N)n(-c5ccc(C6(N)CCC6)cc5)c4n3)c2)CC1` [Example 460, 3-(3-[4-(1-aminocyclobutyl)phenyl]-5-{3-[4-(dimethylamino)piperidin-1-yl]phenyl}-3H-imidazo[4,5-b]pyridin-2-yl)pyridin-2-amine], the IC50 was found to be 0.011 µM.
On the same count and under the same terms, then `Nc1ncccc1-c1nc2ccc(-c3ccc(F)c(O)c3)nc2n1-c1ccc(C2(N)CCC2)cc1` [Example 436, 5-{3-[4-(1-aminocyclobutyl)phenyl]-2-(2-aminopyridin-3-yl)-3H-imidazo[4,5-b]pyridin-5-yl}-2-fluorophenol], with 0.0078 µM; and `Nc1ncccc1-c1nc2ccc(-c3cccc(N4CCOCC4)n3)nc2n1-c1ccc(C2(N)CCC2)cc1` [Example 451, 3-{3-[4-(1-aminocyclobutyl)phenyl]-5-(6-morpholin-4-ylpyridin-2-yl)-3H-imidazo[4,5-b]pyridin-2-yl}pyridin-2-amine], with 0.0071 µM.
On the same count and under the same terms, with `CCNC(=O)c1cccc(-c2ccc3nc(-c4cccnc4N)n(-c4ccc(C5(N)CCC5)cc4)c3n2)c1` [Example 441, 3-{3-[4-(1-aminocyclobutyl)phenyl]-2-(2-aminopyridin-3-yl)-3H-imidazo[4,5-b]pyridin-5-yl}-N-ethylbenzamide] the figure was 0.0066 µM.

Still in this assay, the particulars now being: values not marked with "*": AlphaScreen assay; read-out: Akt1 IC50, (AlphaScreen).
Regarding `Nc1ncccc1-c1nc2cccnc2n1-c1ccc(CNC(=O)c2ccccn2)cc1` [Example 19], the IC50 came out at 0.344 µM.
The same measure, in the same setting: with `Nc1ncccc1-c1nc2cc(-c3ccc(Br)cc3)cnc2n1-c1ccc(CNC(=O)c2ccccc2)cc1` [Example 143, N-{4-[2-(2-aminopyridin-3-yl)-6-(4-bromophenyl)-3H-imidazo[4,5-b]pyridin-3-yl]benzyl}benzamide] the figure was 0.17 µM; with `Cc1noc(C)c1S(=O)(=O)NCc1ccc(-n2c(-c3cccnc3N)nc3cc(Br)cnc32)cc1` [Example 154, N-{4-[2-(2-aminopyridin-3-yl)-6-bromo-3H-imidazo[4,5-b]pyridin-3-yl]benzyl}-3,5-dimethylisoxazole-4-sulfonamide], 1.2 µM.

The assay is the same for the next values; noted with them: values not marked with "*"; read-out: Akt1 IC50, (AlphaScreen).
With `N#Cc1ccc(S(=O)(=O)NCc2ccc(-n3c(-c4cccnc4N)nc4cc(Br)cnc43)cc2)cc1` [Example 165, N-{4-[2-(2-aminopyridin-3-yl)-6-bromo-3H-imidazo[4,5-b]pyridin-3-yl]benzyl}-4-cyanobenzenesulfonamide], the IC50 was found to be 2.1 µM.
Same read-out and setting: with `COc1cc(OC)cc(-c2ccc3nc(-c4cccnc4N)n(-c4ccc(C5(N)CCC5)cc4)c3n2)c1` [Example 411, 3-{3-[4-(1-aminocyclobutyl)phenyl]-5-(3,5-dimethoxyphenyl)-3H-imidazo[4,5-b]pyridin-2-yl}pyridin-2-amine] the figure was 0.0045 µM; with `Nc1ncccc1-c1nc2ccc(-c3ccco3)nc2n1-c1ccc(CNC(=O)c2cccc(F)c2)cc1` [Example 316, N-(4-(2-(2-aminopyridin-3-yl)-5-(furan-2-yl)-3H-imidazo[4,5-b]pyridin-3-yl)benzyl)-3-fluorobenzamide], 0.035 µM; with `Nc1ncccc1-c1nc2cc(-c3ccccc3)cnc2n1-c1ccc(C2(C(=O)O)CCC2)cc1` [Example 363, 1-(4-(2-(2-aminopyridin-3-yl)-6-phenyl-3H-imidazo[4,5-b]pyridin-3-yl)phenyl)cyclobutanecarboxylic acid], 0.25 µM.
The same measure, in the same setting: with `COc1cc(-c2ccc3nc(-c4cccnc4N)n(-c4ccc(C5(N)CCC5)cc4)c3n2)ccc1F` [Example 428, 3-{3-[4-(1-aminocyclobutyl)phenyl]-5-(4-fluoro-3-methoxyphenyl)-3H-imidazo[4,5-b]pyridin-2-yl}pyridin-2-amine] the figure was 0.0058 µM; with `CC(=O)Nc1ccc(C(=O)NCc2ccc(-n3c(-c4cccnc4N)nc4cc(-c5cccnc5)cnc43)cc2)cc1` [Example 238, 4-acetamido-N-(4-(2-(2-aminopyridin-3-yl)-6-(pyridin-3-yl)-3H-imidazo[4,5-b]pyridin-3-yl)benzyl)benzamide], 0.042 µM.
Regarding `CNC(=O)c1cccc(-c2ccc3nc(-c4cccnc4N)n(-c4ccc(C5(N)CCC5)cc4)c3n2)c1` [Example 370, 3-(3-(4-(1-aminocyclobutyl)phenyl)-2-(2-aminopyridin-3-yl)-3H-imidazo[4,5-b]pyridin-5-yl)-N-methylbenzamide], the IC50 was 0.0046 µM.
On the same count and under the same terms, then `Cc1cnc2c(c1)nc(-c1cccnc1N)n2-c1ccc(CNC(=O)c2cnccn2)cc1` [Example 285, N-(4-(2-(2-aminopyridin-3-yl)-6-methyl-3H-imidazo[4,5-b]pyridin-3-yl)benzyl)pyrazine-2-carboxamide], with 0.85 µM; and `Cc1cnc2c(c1)nc(-c1cccnc1N)n2-c1ccc(CNC(=O)c2ccc(Cl)cc2Cl)cc1` [Example 275, N-(4-(2-(2-aminopyridin-3-yl)-6-methyl-3H-imidazo[4,5-b]pyridin-3-yl)benzyl)-2,4-dichlorobenzamide], with 0.11 µM; and `Nc1ncccc1-c1nc2cc(-c3cccnc3)cnc2n1-c1ccc(CNS(=O)(=O)c2ccc(Cl)cc2)cc1` [Example 207, N-(4-(2-(2-aminopyridin-3-yl)-6-(pyridin-3-yl)-3H-imidazo[4,5-b]pyridin-3-yl)benzyl)-4-chlorobenzenesulfonamide], with 0.06 µM.
The same measure, in the same setting: then `Cc1cnc2c(c1)nc(-c1cccnc1N)n2-c1ccc(CNC(=O)c2ccc3nc(C)ccc3c2)cc1` [Example 231, N-(4-(2-(2-aminopyridin-3-yl)-6-methyl-3H-imidazo[4,5-b]pyridin-3-yl)benzyl)-2-methylquinoline-6-carboxamide], with 0.02 µM.
Same read-out and setting: then `Nc1ncccc1-c1nc2cc(Br)cnc2n1-c1ccc(CNS(=O)(=O)C2CC2)cc1` [Example 168, N-{4-[2-(2-aminopyridin-3-yl)-6-bromo-3H-imidazo[4,5-b]pyridin-3-yl]benzyl}cyclopropanesulfonamide], with 0.17 µM.
As to `CC(=O)Nc1cccc(C(=O)NCc2ccc(-n3c(-c4cccnc4N)nc4cc(C)cnc43)cc2)c1` [Example 229, 3-acetamido-N-(4-(2-(2-aminopyridin-3-yl)-6-methyl-3H-imidazo[4,5-b]pyridin-3-yl)benzyl)benzamide], the IC50 is 0.025 µM.
Consider `Cc1cnc2c(c1)nc(-c1cccnc1N)n2-c1ccc(CNC(=O)OC(C)(C)C)cc1` [Example 227, tert-butyl 4-(2-(2-aminopyridin-3-yl)-6-methyl-3H-imidazo[4,5-b]pyridin-3-yl)benzylcarbamate], for which the IC50 is 0.47 µM.
As for `Nc1ncccc1-c1nc2ccc(-c3cccc(OC(F)(F)F)c3)nc2n1-c1ccc(C2(N)CCC2)cc1` [Example 426, 3-{3-[4-(1-aminocyclobutyl)phenyl]-5-[3-(trifluoromethoxy)phenyl]-3H-imidazo[4,5-b]pyridin-2-yl}pyridin-2-amine], the IC50 was found to be 0.005 µM.
Take `Nc1ncccc1-c1nc2ccc(-c3cccc(N4CCCCC4)c3)nc2n1-c1ccc(C2(N)CCC2)cc1` [Example 431, 3-{3-[4-(1-aminocyclobutyl)phenyl]-5-(3-piperidin-1-ylphenyl)-3H-imidazo[4,5-b]pyridin-2-yl}pyridin-2-amine]: the IC50 was 0.018 µM.
As for `Nc1ncccc1-c1nc2ccc(N3CCCCC3)nc2n1-c1ccc(CNC(=O)c2ccc(Br)cc2)cc1` [Example 191, N-(4-(2-(2-aminopyridin-3-yl)-5-(piperidin-1-yl)-3H-imidazo[4,5-b]pyridin-3-yl)benzyl)-4-bromobenzamide], the IC50 worked out at 1.1 µM.
Same read-out and setting: then `Cc1cc2nc(-c3cccnc3N)n(-c3ccc(CNC(=O)c4ccccc4)cc3)c2nc1C` [Example 322, N-(4-(2-(2-aminopyridin-3-yl)-5,6-dimethyl-3H-imidazo[4,5-b]pyridin-3-yl)benzyl)benzamide], with 0.077 µM; and `N#Cc1cccc(NC(=O)c2ccc(-n3c(-c4cccnc4N)nc4cccnc43)cc2)c1` [Example 183, 4-[2-(2-aminopyridin-3-yl)-3H-imidazo[4,5-b]pyridin-3-yl]-N-(3-cyanophenyl)benzamide], with 1.5 µM.
For the compound `Cc1cnc2c(c1)nc(-c1cccnc1N)n2-c1ccc(CNC(=O)c2cccc(C(F)(F)F)c2)cc1` [Example 267, N-(4-(2-(2-aminopyridin-3-yl)-6-methyl-3H-imidazo[4,5-b]pyridin-3-yl)benzyl)-3-(trifluoromethyl)benzamide], the half-inhibitory concentration (IC50) is 0.59 µM.
For `Cc1cnc2c(c1)nc(-c1cccnc1N)n2-c1ccc(CNC(=O)c2cccc(F)c2F)cc1` [Example 265, N-(4-(2-(2-aminopyridin-3-yl)-6-methyl-3H-imidazo[4,5-b]pyridin-3-yl)benzyl)-2,3-difluorobenzamide], the IC50 is 0.093 µM.
Still for that read-out and setting: then `CN(C)C(=O)c1cccc(-c2ccc3nc(-c4cccnc4N)n(-c4ccc(C5(N)CCC5)cc4)c3n2)c1` [Example 380, 3-(3-(4-(1-aminocyclobutyl)phenyl)-2-(2-aminopyridin-3-yl)-3H-imidazo[4,5-b]pyridin-5-yl)-N,N-dimethylbenzamide], with 0.0033 µM; and `Cc1cnc2c(c1)nc(-c1cccnc1N)n2-c1ccc(CNC(=O)c2cccc(N(C)C)c2)cc1` [Example 211, N-(4-(2-(2-aminopyridin-3-yl)-6-methyl-3H-imidazo[4,5-b]pyridin-3-yl)benzyl)-3-(dimethylamino)benzamide], with 0.061 µM; and `Cc1ccc(NC(=O)c2ccc(-n3c(-c4cccnc4N)nc4cccnc43)cc2)cc1` [Example 186, 4-[2-(2-aminopyridin-3-yl)-3H-imidazo[4,5-b]pyridin-3-yl]-N-(4-methylphenyl)benzamide], with 2.5 µM.
